Test system: HOP-62 multicell spheroids with HUVEC/MSC, viability
Test: Anticancer human tumor HOP-62 cell line growth inhibition [KRAS2];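 also: viability read after a week of compound exposure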;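 as to viability, T/C: 100% = DMSO vehicle-treated spheroids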
Conditions: for IC50: curve of first compound; for viability, T/C: stronger effect = lower value; active = viability on the fitted dose curve at most 10% of control; inactive = the rest
Source text: Multicellular complex tumor spheroid response to RAS pathway inhibitors in combination with a targeted agents in patient-derived cell lines with oncogenic KRAS variants from multiple cancer types
A high-throughput screen of multi-cell type tumor spheroids was designed to identify active combinations of targeted small molecules and KRAS pathway inhibitors. Complex spheroids include a stromal component modeled by human endothelial cells (HUVEC) and fibroblasts modeled by human mesenchymal stem cells (MSCs). The concentration ranges selected for each drug and investigational agent were based upon clinically achievable concentrations if the clinical Cmax of the agent was known.
Compounds. The drugs and investigational agents: BI-3406 (NSC825286), BAY-293 (NSC824723), batoprotafib (TNO155; NSC825523), sotorasib (AMG 510; NSC818433), MRTX1257 (NSC819558), elimusertib (BAY 1895344; NSC800525), molibresib (GSK525762; NSC774829), temuterkib (LY3214996; NSC803410), venetoclax (NSC766270), alisertib (NSC759677), olaparib (NSC753686), talazoparib (NSC767125), erdafitinib (NSC781556), ipatasertib (NSC767898), cabozantinib (NSC761068), nintedanib (NSC756659), abemaciclib (NSC768073), docetaxel (NSC628503), trametinib (NSC758246), and sapanisertib (NSC764658) were obtained from the National Cancer Institute (NCI) Developmental Therapeutics Program Chemical Repository. The FDA-approved anticancer drug set is available from the Developmental Therapeutics Program. […] The stock solutions were prepared in dimethyl sulfoxide (DMSO, Sigma-Aldrich, St. Louis, MO, cat. D2650) at 800-fold the tested concentration and stored at -70 degrees C prior to their use. All drugs and investigational agents were tested over a range starting from a high concentration at or near the clinical Cmax and decreasing in half-log increments. If the clinical Cmax for an agent had not been determined, the highest concentration tested was 10 microM.
Cell Culture. All cells were maintained in an incubator at 37 degrees C and 5% CO2 with 95% humidity. The PDC lines were cultured according to standard operating procedures established by the NCI PDMR (https://pdmr.cancer.gov/sops/default.htm). Briefly, all PDCs were thawed and cultured in Matrigel-coated flasks prepared with a working solution of 1X Ham's F-12 nutrient mix, without supplementation (Invitrogen, Waltham, MA, cat. 11765054), 100 U/mL penicillin-streptomycin (Invitrogen, cat. 15140122), and 2.5% Matrigel (Corning Inc., Corning, NY, cat. 354248) for the first three passages. All PDCs were cultured in complete DMEM/F-12 media containing advanced DMEM/F-12 (Invitrogen, cat. 12634028), 4.9% defined fetal bovine serum, heat inactivated (HyClone Laboratories Inc., Logan, UT, cat. SH30070.03HI), 389 ng/mL hydrocortisone (Sigma-Aldrich, cat. H4001), 9.7 ng/mL human EGF recombinant protein (Invitrogen, cat. PHG0313), 23.4 microg/mL adenine (Sigma-Aldrich, cat. A2786), 97.3 U/mL penicillin-streptomycin (Invitrogen, cat. 15140122), 1.9 mM L-glutamine (Invitrogen, cat. 25030081), and 9.7 microM Y-27632 dihydrochloride (Tocris Bioscience, Bristol, United Kingdom, cat. 1254). The PDCs were cultured in complete DMEM/F12 media without 9.7 microM Y-27632 dihydrochloride for at least two passages prior to the screen. The established cell line HOP-62 was cultured in RPMI 1640 medium, HEPES (Invitrogen, cat. 22400105) with 10% defined fetal bovine serum (HyClone Laboratories Inc., cat. SH30070.03) and 2 mM L-glutamine (Invitrogen, cat. 25030081). The pooled donor HUVEC were cultured in endothelial cell growth medium 2 (PromoCell, Heidelberg, Germany, cat. C-22011) and the hMSC were cultured in mesenchymal stem cell growth medium 2 (PromoCell, cat. C-28009). For all experiments, HUVEC and hMSC were used at passages </=5, while the malignant cell lines were used at passages </=15. […]

[1] = second compound 0.1 µM, first compound 0.0316 µM
[2] = second compound 0.1 µM, first compound 0.1 µM
[3] = second compound 0.1 µM, first compound 0.316 µM
[4] = second compound 0.1 µM, first compound 1 µM
[5] = second compound 0.1 µM, first compound 3.16 µM
[6] = second compound 0.316 µM, first compound 0.0316 µM
[7] = second compound 0.316 µM, first compound 0.1 µM
[8] = second compound 0.316 µM, first compound 0.316 µM
[9] = second compound 0.316 µM, first compound 1 µM
[10] = second compound 0.316 µM, first compound 3.16 µM
[11] = second compound 1 µM, first compound 0.0316 µM
[12] = second compound 1 µM, first compound 0.1 µM
[13] = second compound 1 µM, first compound 0.316 µM
[14] = second compound 1 µM, first compound 1 µM
[15] = second compound 1 µM, first compound 3.16 µM
[16] = second compound 3.16 µM, first compound 0.0316 µM
[17] = second compound 3.16 µM, first compound 0.1 µM
[18] = second compound 3.16 µM, first compound 0.316 µM
[19] = second compound 3.16 µM, first compound 1 µM
[20] = second compound 3.16 µM, first compound 3.16 µM
[21] = second compound 0.0316 µM, first compound 0.01 µM
[22] = second compound 0.0316 µM, first compound 0.0316 µM
[23] = second compound 0.0316 µM, first compound 0.1 µM
[24] = second compound 0.1 µM, first compound 0.01 µM
[25] = second compound 0.316 µM, first compound 0.01 µM
[26] = second compound 1 µM, first compound 0.01 µM
[27] = second compound 3.16 µM, first compound 0.01 µM

CC1OCC2(CCN(c3cnc(Sc4ccnc(N)c4Cl)c(N)n3)CC2)C1N (stereo not given) + C=CC(=O)N1CCN(c2nc(=O)n(-c3c(C)ccnc3C(C)C)c3nc(-c4c(O)cccc4F)c(F)cc23)C(C)C1
134 nM: IC50 (second compound 3.16 µM)
90.5 nM: IC50 (second compound 1 µM)
inactive: viability, T/C [1] 47.7% | viability, T/C [2] 39.1% | viability, T/C [3] 26.5% | viability, T/C [4] 16.3% | viability, T/C [5] 12.5% | viability, T/C (second compound 0.1 µM, first compound 10 µM) 13.3% | viability, T/C [6] 63.7% | viability, T/C [7] 39.8% | viability, T/C [8] 28.4% | viability, T/C [9] 19.2% | viability, T/C [10] 15.6% | viability, T/C (second compound 0.316 µM, first compound 10 µM) 13.6% | viability, T/C [11] 67.5% | viability, T/C [12] 47% | viability, T/C [13] 36.9% | viability, T/C [14] 27.4% | viability, T/C [15] 18.2% | viability, T/C (second compound 1 µM, first compound 10 µM) 21.5% | viability, T/C [16] 61% | viability, T/C [17] 51.7% | viability, T/C [18] 42.5% | viability, T/C [19] 30.1% | viability, T/C [20] 24.1% | viability, T/C (second compound 3.16 µM, first compound 10 µM) 24.9% | viability, T/C (second compound 10 µM, first compound 0.0316 µM) 44.6% | viability, T/C (second compound 10 µM, first compound 0.1 µM) 40.7% | viability, T/C (second compound 10 µM, first compound 0.316 µM) 30.1% | viability, T/C (second compound 10 µM, first compound 1 µM) 26.2% | viability, T/C (second compound 10 µM, first compound 3.16 µM) 25.8% | viability, T/C (second compound 10 µM, first compound 10 µM) 23.2%
62.3 nM: IC50 (second compound 0.316 µM)
< 31.6 nM: IC50 (second compound 0.1 µM) | IC50 (second compound 10 µM)

CC(=O)OC12COC1CC(O)C1(C)C(=O)C(O)C3=C(C)C(OC(=O)C(O)C(NC(=O)OC(C)(C)C)c4ccccc4)CC(O)(C(OC(=O)c4ccccc4)C21)C3(C)C (stereo not given) + C=CC(=O)N1CCN(c2nc(OCC3CCCN3C)nc3c2CCN(c2cccc4cccc(C)c24)C3)CC1CC#N
inactive: viability, T/C [21] 31.2% | viability, T/C [22] 26.2% | viability, T/C [23] 26.6% | viability, T/C (second compound 0.0316 µM, first compound 0.316 µM) 28.6% | viability, T/C (second compound 0.0316 µM, first compound 1 µM) 30.2% | viability, T/C (second compound 0.0316 µM, first compound 3.16 µM) 35.1% | viability, T/C [24] 19.4% | viability, T/C [1] 22.7% | viability, T/C [2] 20.7% | viability, T/C [3] 20.1% | viability, T/C [4] 23.2% | viability, T/C [5] 23.2% | viability, T/C [25] 18.7% | viability, T/C [6] 20.1% | viability, T/C [7] 17.5% | viability, T/C [8] 16.9% | viability, T/C [9] 20.2% | viability, T/C [10] 19.9% | viability, T/C [26] 18.7% | viability, T/C [11] 12.1% | viability, T/C [12] 17.1% | viability, T/C [13] 16.2% | viability, T/C [14] 18.2% | viability, T/C [15] 18.9% | viability, T/C [27] 27.7% | viability, T/C [16] 26.9% | viability, T/C [17] 23.2% | viability, T/C [18] 28.5% | viability, T/C [19] 25.5% | viability, T/C [20] 27.6%
< 10 nM: IC50 (second compound 0.0316 µM) | IC50 (second compound 0.1 µM) | IC50 (second compound 0.316 µM) | IC50 (second compound 1 µM) | IC50 (second compound 3.16 µM)

CN(C)C/C=C/C(=O)Nc1cc2c(Nc3ccc(F)c(Cl)c3)ncnc2cc1O[C@H]1CCOC1 + C=CC(=O)N1CCN(c2nc(OCC3CCCN3C)nc3c2CCN(c2cccc4cccc(C)c24)C3)CC1CC#N
> 100 nM: IC50 (second compound 0.0316 µM) | IC50 (second compound 0.1 µM)
inactive: viability, T/C (second compound 0.0316 µM, first compound 0.000316 µM) 111% | viability, T/C (second compound 0.0316 µM, first compound 0.001 µM) 105% | viability, T/C (second compound 0.0316 µM, first compound 0.00316 µM) 94.9% | viability, T/C [21] 86% | viability, T/C [22] 99.3% | viability, T/C [23] 89.6% | viability, T/C (second compound 0.1 µM, first compound 0.000316 µM) 69% | viability, T/C (second compound 0.1 µM, first compound 0.001 µM) 75.4% | viability, T/C (second compound 0.1 µM, first compound 0.00316 µM) 67.1% | viability, T/C [24] 61.5% | viability, T/C [1] 67.4% | viability, T/C [2] 61.2% | viability, T/C (second compound 0.316 µM, first compound 0.000316 µM) 57.4% | viability, T/C (second compound 0.316 µM, first compound 0.001 µM) 52.6% | viability, T/C (second compound 0.316 µM, first compound 0.00316 µM) 49.4% | viability, T/C [25] 48.8% | viability, T/C [6] 46.8% | viability, T/C [7] 42.1% | viability, T/C (second compound 1 µM, first compound 0.000316 µM) 42.8% | viability, T/C (second compound 1 µM, first compound 0.001 µM) 44.9% | viability, T/C (second compound 1 µM, first compound 0.00316 µM) 41% | viability, T/C [26] 37% | viability, T/C [11] 31.5% | viability, T/C [12] 32.2% | viability, T/C (second compound 3.16 µM, first compound 0.000316 µM) 22.5%
4.39 nM: IC50 (second compound 0.316 µM)
< 0.316 nM: IC50 (second compound 1 µM) | IC50 (second compound 3.16 µM)
active: viability, T/C (second compound 3.16 µM, first compound 0.001 µM) 0.2% | viability, T/C (second compound 3.16 µM, first compound 0.00316 µM) 3.5% | viability, T/C [27] 6.01% | viability, T/C [16] 17.6% | viability, T/C [17] 13.5%

Source: PubChem BioAssay AID1963858 (Molecular Pharmacology Branch, DTP, NCI, 2024)
